Assay results reported in patent US12565515B2, “1,2,4-oxadiazole compounds as inhibitors of CD47 signalling pathways” (AURIGENE ONCOLOGY LIMITED, priority 2018, dated 2026).

System: luciferase expressing Raji cells
Assay: Luciferase based phagocytosis assay
Type: cell-based
Conditions: human monocyte-derived macrophages, luminescence, read-out: % normalized phagocytosis (at 10 μM)
Protocol: (§1) DPBS (Gibco), RPMI 1640 WITH HEPES AND L-GLN-500 ML (Lonza), Recombinant Human M-CSF (R& D systems), CD47 Monoclonal Antibody (B6H12), Functional Grade antibody (Ebioscience), Mouse IgG1 kappa Isotype Control, Functional Grade (Ebioscience), Vacutainer (multiple sample luer adapter) (BD), Vacutainer (sodium heparin (NH) 158USP units, Blood collection tubes (BD), Histopaque (density—1.077 gm/ml) (SIGMA 1077), Trypan Blue solution (SIGMA-T8154), Hemacytometer (Bright line-SIGMA Z359629), Scalp vein infusion set (JMS), Cell Dissociation buffer (Gibco), 48-well sterile flat bottom plates (Corning), Luciferase expressing Raji cells (Generated in house by trasfection of luciferase gene in Raji cells) Luminometer, Hygromycin B (Invitrogen), Bright Glo luciferase assay system (Promega), 96 well plate, polystyrene, high band, white flat bottom wells (Sigma CLS3912), APC anti-mouse/human CD11b Antibody (Biolegend), H929 cells, CFSE (Ebioscience), Fetal Bovine Serum (Gibco Cat #: 10437028), Round-Bottom FACs Tubes (BD), Flowcytometer BD FACS Verse, 96 well plates, ultra-low attachment (Corning).
In vitro phagocytosis assay was performed to evaluate the ability of test item to enhance the phagocytic activity of macrophages. Monocytes were isolated from blood of healthy donor and cultured for 6-8 days using 10% RPMI (Roswell Park Memorial Institute) media and recombinant human M-CSF to differentiate into macrophages. Media was changed every alternate day. After differentiation, adherent macrophages were collected by gentle scraping and cultured in 10% RPMI overnight at a density of 0.1 million per well in 48 well tissue culture plate. Simultaneously, luciferase expressing Raji cells were cultured in 10% RPMI media with 100 μg/mL of hygromycin B in tissue culture flask. On the day of phagocytosis, macrophages were serum starved for 2 hours. 0.4 million luciferase expressing Raji cells per well were incubated with anti human CD47 purified B6H12 or Mouse IgG1 K Isotype Control antibody or various concentrations of test item in serum free media for 30 min at 37° C. and added into respective well of the 48 well plate seeded with macrophages. After 2 hours, cells were washed twice with PBS and 100 μL of serum free RPMI was added to each well. Additionally, 50 μL Bright Glow reagent was added to each well followed by mixing of cells and incubated for 5 min in dark. Luminescence reading was taken using plate reader after transferring the content of each well to white plate. Intensity of luminescence indicated the extent of phagocytosis. Each experimental condition was carried out in duplicate.

Structure (SMILES)	activation at 10 µM [%]
NCCCC[C@H](N)c1noc([C@H](CCC(N)=O)NC(=O)N2CCC[C@H]2C(=O)O)n1 [Compound 1, (((S)-4-amino-1-(3-((S)-1,5-diaminopentyl)-1,2,4-oxadiazol-5-yl)-4-oxobutyl)carbamoyl)-L-proline]	39
N=C(N)NCCC[C@H](NC(=O)N1CCCC1C(=O)O)c1nc([C@@H](N)CCC(=O)O)no1 (stereo partly drawn) [Compound 3]	42
N=C(N)NCCC[C@H](N)c1noc([C@H](CCC(=O)O)NC(=O)N[C@@H](Cc2ccccc2)C(=O)O)n1 [Compound 7, (S)-4-(3-((S)-1-amino-4-guanidinobutyl)-1,2,4-oxadiazol-5-yl)-4-(3-((S)-1-carboxy-2-phenylethyl)ureido)butanoic acid]	58
N=C(N)NCCC[C@H](NC(=O)N[C@@H](CCC(=O)O)c1nc([C@@H]2CCCN2)no1)C(=O)O [Compound 8]	20
N=C(N)NCCC[C@H](NC(=O)N[C@@H](CCC(N)=O)c1nc([C@@H](N)CC(N)=O)no1)C(=O)O [Compound 9]	38
N=C(N)NCCC[C@H](NC(=O)N[C@@H](CCC(N)=O)C(=O)O)c1nc([C@@H](N)CCC(N)=O)no1 [Compound 12]	44
NCCCC[C@H](N)c1noc([C@H](CCC(=O)O)NC(=O)N[C@@H](Cc2cnc[nH]2)C(=O)O)n1 [Compound 13]	49
NCc1noc([C@H](Cc2cnc[nH]2)NC(=O)N[C@@H](Cc2ccccc2)C(=O)O)n1 [Compound 14]	47

System: H929 cells
Assay: FACS based phagocytosis assay
Type: cell-based
Conditions: NCI-H929, human macrophages, CFSE stained H929 cells, flow cytometry, normalized to positive control B6H12
Protocol: as §1
Monocytes were isolated from blood of healthy donor and cultured for 6-8 days using 10% RPMI (Roswell Park Memorial Institute) media and recombinant human M-CSF to differentiate into macrophages. Media was changed every alternate day. Simultaneously, H929 cells were cultured in 10% RPMI media with 50 μg/mL of betamercaptoethanol in tissue culture flask. On the day of phagocytosis adherent macrophages were serum starved for 2 hours in RPMI media. Simultaneously H929 cells were stained with 0.3 μM CFSE stain. After washing, 0.2 million CFSE stained H929 cells were incubated with anti-human CD47 or Mouse IgG1 K Isotype Control antibody or various conc of test item in serum free media for 30 min at 37° C. After 2 hours of serum starvation macrophages were dissociated with cell dissociation buffer and collected by gentle scraping and added at conc of 0.05 million per well into respective wells of the ultra-low attachment 96 well plate seeded with H929 cells. Phagocytosis was allowed for 2 hours. After 2 hours, cells were washed with PBS and stained with 1 μL of anti-human CD11b-APC antibody prepared in 100 μL of PBS for 30 min in 4° C. in dark. Cells were further washed and fixed in 100 μL of fixation buffer until acquired by Flow cytometry. The extent of phagocytosis of H929 cells by human macrophages was measured by acquiring the samples by Flow cytometry. Samples acquired by Flow cytometry were analysed by using FlowJo software. Each experimental condition was carried out in duplicate. Cells positive for FITC (CFSE) and CD11b-APC were considered as phagocytosed macrophages. Raw data of % phagocytosis by macrophages were obtained in the form of excel sheet from FlowJo. % phagocytosis from isotype control (background phagocytosis) was subtracted from % phagocytosis of macrophages treated with compound as well as other controls to get corrected phagocytosis values. Corrected phagocytosis values of compound treated samples were normalized with phagocytosis of positive control (B6H12) using the formula: % normalized phagocytosis=[(corrected % phagocytosis of compound)/(corrected phagocytosis of B6H12)*100]

Structure (SMILES)	activation at 10 µM [%]
NCCCC[C@H](N)c1noc([C@H](CCC(N)=O)NC(=O)N2CCC[C@H]2C(=O)O)n1 [Compound 1, (((S)-4-amino-1-(3-((S)-1,5-diaminopentyl)-1,2,4-oxadiazol-5-yl)-4-oxobutyl)carbamoyl)-L-proline]	45
N=C(N)NCCC[C@H](N)c1noc([C@H](CCC(=O)O)NC(=O)N2CCCC2C(=O)O)n1 (stereo partly drawn) [Compound 2]	37
N=C(N)NCCC[C@H](NC(=O)N1CCCC1C(=O)O)c1nc([C@@H](N)CCC(=O)O)no1 (stereo partly drawn) [Compound 3]	73
N=C(N)NCCC[C@H](NC(=O)N1CCCC1C(=O)O)c1nc([C@@H](N)CCC(N)=O)no1 (stereo partly drawn) [Compound 5]	56
N=C(N)NCCC[C@H](N)c1noc([C@H](CCC(=O)O)NC(=O)N[C@@H](Cc2ccccc2)C(=O)O)n1 [Compound 7, (S)-4-(3-((S)-1-amino-4-guanidinobutyl)-1,2,4-oxadiazol-5-yl)-4-(3-((S)-1-carboxy-2-phenylethyl)ureido)butanoic acid]	38
N=C(N)NCCC[C@H](NC(=O)N[C@@H](CCC(=O)O)c1nc([C@@H]2CCCN2)no1)C(=O)O [Compound 8]	40
N=C(N)NCCC[C@H](NC(=O)N[C@@H](Cc1ccccc1)C(=O)O)c1nc([C@@H](N)CCC(N)=O)no1 [Compound 10]	28
N=C(N)NCCC[C@H](NC(=O)N[C@@H](CCC(N)=O)C(=O)O)c1nc([C@@H](N)CCC(N)=O)no1 [Compound 12]	20
NCCCC[C@H](N)c1noc([C@H](CCC(=O)O)NC(=O)N[C@@H](Cc2cnc[nH]2)C(=O)O)n1 [Compound 13]	29
NCc1noc([C@H](Cc2cnc[nH]2)NC(=O)N[C@@H](Cc2ccccc2)C(=O)O)n1 [Compound 14]	26
NCCCC[C@H](N)c1noc([C@H](CCC(=O)O)NC(=O)NCC(=O)O)n1 [Compound 15]	62
N[C@@H](Cc1ccccc1)c1noc(CNC(=O)N2CCCC2C(=O)O)n1 (stereo partly drawn) [Compound 16]	27
N[C@@H](CCC(=O)O)c1noc(CNC(=O)N2CCCC2C(=O)O)n1 (stereo partly drawn) [Compound 17]	33
N[C@@H](Cc1cnc[nH]1)c1noc([C@H](Cc2ccccc2)NC(=O)N2CCCC2C(=O)O)n1 (stereo partly drawn) [Compound 19]	52
NC(=O)CC[C@H](N)c1noc([C@H](CCC(=O)O)NC(=O)N2CCCC2C(=O)O)n1 (stereo partly drawn) [Compound 21]	13
N[C@@H](CCC(=O)O)c1noc(CNC(=O)N[C@@H](Cc2cnc[nH]2)C(=O)O)n1 [Compound 22]	33
N=C(N)NCCC[C@H](NC(=O)N1CCCC1C(=O)O)c1nc([C@@H](N)CC(=O)O)no1 (stereo partly drawn) [Compound 23]	60

Structure (SMILES)	activation at 10 µM [%]
CCC(C)[C@H](N)c1noc([C@H](CCCNC(=N)N)NC(=O)N2CCCC2C(=O)O)n1 (stereo partly drawn) [Compound 29]	26
N=C(N)NCCC[C@H](NC(=O)N1CCCC1C(=O)O)c1nc([C@@H](N)Cc2c[nH]c3ccccc23)no1 (stereo partly drawn) [Compound 30]	23
N=C(N)NCCC[C@H](NC(=O)N1CCCC1C(=O)O)c1nc(CN)no1 (stereo partly drawn) [Compound 31]	58
N[C@@H](CCC(=O)O)c1noc([C@H](CCC(=O)O)NC(=O)N2CCCC2C(=O)O)n1 (stereo partly drawn) [Compound 32]	46
N[C@@H](CCC(=O)O)c1noc([C@H](Cc2ccccc2)NC(=O)N2CCC[C@H]2C(=O)O)n1 [Compound 33]	31
N[C@@H](CCC(=O)O)c1noc([C@H](CO)NC(=O)N2CCCC2C(=O)O)n1 (stereo partly drawn) [Compound 35]	35
CCC(C)[C@H](NC(=O)N[C@@H](CCCNC(=N)N)c1nc([C@@H](N)CCC(=O)O)no1)C(=O)O (stereo partly drawn) [Compound 37]	17
COC(=O)CC[C@H](N)c1noc(C(CCCNC(=N)N)NC(=O)N2CCCC2C(=O)OC)n1 (stereo partly drawn) [Compound 39]	23
COC(=O)C1CCCN1C(=O)NC(CCCNC(=N)N)c1nc([C@@H](N)CCC(=O)O)no1 (stereo partly drawn) [Compound 40]	27
NCCCC[C@H](NC(=O)NCc1nc([C@@H](N)CCC(N)=O)no1)C(=O)O [Compound 41]	31
NCCCC[C@H](NC(=O)N[C@@H](CCC(N)=O)c1nc([C@@H](N)CC(N)=O)no1)C(=O)O [Compound 43]	43
CC(C)C[C@H](NC(=O)N[C@@H](CCCNC(=N)N)c1nc([C@@H](N)CCC(=O)O)no1)C(=O)O [Compound 44]	20
N=C(N)NCCC[C@H](NC(=O)N[C@@H](Cc1c[nH]c2ccccc12)C(=O)O)c1nc([C@@H](N)CCC(=O)O)no1 [Compound 46]	30
N=C(N)NCCC[C@H](NC(=O)N[C@@H](CC(=O)O)C(=O)O)c1nc([C@@H](N)CCC(=O)O)no1 [Compound 47]	18
N=C(N)NCCC[C@H](NC(=O)NCC(=O)O)c1nc([C@@H](N)CCC(=O)O)no1 [Compound 48]	29
NC(=O)CC[C@H](N)c1noc(CNC(=O)N[C@@H](CCC(=O)O)C(=O)O)n1 [Compound 50]	26
N=C(N)NCCC[C@H](NC(=O)N[C@@H](CCC(=O)O)C(=O)O)c1nc([C@@H](N)CCC(=O)O)no1 [Compound 51]	24
